In patent publication US9630931B2, “Pharmaceutically active pyrazine derivatives” (Sentinel Oncology Limited, priority 2011, dated 2017) one finds IC50 data, which are given here for 23 compounds.

Counter-ions that a name gives are not always drawn.

The term IC50 denotes the point on the concentration scale where inhibition reaches its midpoint.

One test concerns MOLM-13 cells. Description: Inhibition of cell growth in MOLM-13 cells (Alamar blue, 72 h). In kind it is cell-based. As to conditions: Homo sapiens, 72 h incubation. As to the method:
(§1) Studies were carried out to test the effect of compounds on the inhibition of cell growth in MOLM-13 and MV4-11 cells.
(§2) The following protocol was used:
(§3) (a) Cells were seeded in 96-well plates at cell densities of 2500/well (MOLM-13) and 10,000/well (MV4-11). Cells were then incubated overnight prior to addition of compound or vehicle control.
(§4) (b) Test compounds were prepared from 10 mM DMSO stocks to give a final concentration range of 10 μM, 3 μM, 1 μM, 0.3 μM, […], 0.03 μM, 0.01 μM, […] vehicle control. The DMSO content was constant at 0.1%.
(§5) (c) Test compounds were incubated with the cells for 72 h at 37° C. 5% CO2 in a humidified atmosphere.
(§6) (d) Alamar blue 10% (v/v) was then added and incubated for a further 4 h, and fluorescent product detected using the BMG FLUOstar plate reader.
(§7) (e) Media only background values were subtracted and the data analysed using a 4-parameter logistic equation in GraphPad Prism.
On the technique in general: Alamar Blue is a resazurin reagent that responds to reducing activity.

In another test the test system is MV4-11 cells. Description: Inhibition of cell growth in MV4-11 cells (Alamar blue, 72 h). The test is classed as cell-based. As to conditions: Homo sapiens, 72 h incubation. As to the method:
as §1, §2, §3, §4, §5, §6, §7

For the next test, the target named is Chk-1 kinase (Homo sapiens (Human), UniProt O14757). Briefly: Chk-1 kinase inhibiting activity (33P-ATP radiometric filter assay, CHKtide substrate). The test is classed as biochemical. As to conditions: recombinant full length GST-tagged CHK-1 0.5 nM, CHKtide 20 μM, 120 minutes at room temperature; read-out: IC50 against Chk-1 kinase. As for the experimental part:
The compounds of the invention were tested for activity against Chk-1 kinase using the materials and protocols set out below.
Base Reaction buffer: 20 mM Hepes (pH 7.5), 10 mM MgCl2, 1 mM EGTA, 0.02% Brij35, 0.02 mg/ml BSA, 0.1 mM Na3VO4, 2 mM DTT, 1% DMSO
Required cofactors are added individually to each kinase reaction
(i) Prepare indicated substrate in freshly prepared Base Reaction Buffer
(ii) Deliver any required cofactors to the substrate solution above
(iii) Deliver indicated kinase into the substrate solution and gently mix
(iv) Deliver compounds in DMSO into the kinase reaction mixture
(v) Deliver ^33P-ATP (specific activity 0.01 μCi/μl final) into the reaction mixture to initiate the reaction.
(vi) Incubate kinase reaction for 120 minutes at room temperature
(vii) Reactions are spotted onto P81 ion exchange paper (Whatman #3698-915)
(viii) Wash filters extensively in 0.1% phosphoric acid.
(ix) Dry filters and measure counts in scintillation counter
Recombinant full length construct, N-terminal GST tagged, purified from insect cells.
No special measures were taken to activate this kinase.
Final concentration in assay=0.5 nM
Peptide sequence: [[…]]
Final concentration in assay=20 μM
No additional cofactors are added to the reaction mixture
From the results obtained by following the above protocol, the IC50 values against Chk-1 kinase of a number of the compounds of the Examples were determined and these are shown in Table 3.

Chain of Chk-1 kinase (O14757 whole entry): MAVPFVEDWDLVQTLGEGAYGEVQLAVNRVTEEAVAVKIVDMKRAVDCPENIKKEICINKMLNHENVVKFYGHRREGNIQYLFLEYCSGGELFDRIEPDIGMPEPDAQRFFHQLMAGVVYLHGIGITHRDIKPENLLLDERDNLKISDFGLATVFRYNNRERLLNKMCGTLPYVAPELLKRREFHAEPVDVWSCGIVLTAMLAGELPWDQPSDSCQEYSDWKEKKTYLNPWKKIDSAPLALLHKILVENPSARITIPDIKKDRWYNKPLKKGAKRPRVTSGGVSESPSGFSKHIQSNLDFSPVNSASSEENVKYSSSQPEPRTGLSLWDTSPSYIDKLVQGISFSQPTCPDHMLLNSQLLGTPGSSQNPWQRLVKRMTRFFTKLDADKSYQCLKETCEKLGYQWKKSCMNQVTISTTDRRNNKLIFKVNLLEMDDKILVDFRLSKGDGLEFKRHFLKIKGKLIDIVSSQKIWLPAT

For `COc1cc(CCNCC2CCNCC2)c(Cl)cc1NC(=O)Nc1cnc(C#N)cn1` [Example 1, 1-(5-Chloro-2-methoxy-4-{2-[(piperidin-4-ylmethyl)-amino]-ethyl}-phenyl)-3-(5-cyano-pyrazin-2-yl)-urea hydrochloride], the results for the IC50 with MOLM-13 cells, in the test with MV4-11 cells and at Chk-1 kinase were 240 nM, 386 nM and 0.1 nM, respectively.
For `COc1cc(CCNCC2CNCCO2)c(Cl)cc1NC(=O)Nc1cnc(C#N)cn1` (centres unmarked) [Example 2, 1-(5-Chloro-2-methoxy-4-{2-[(morpholin-2-ylmethyl)-amino]-ethyl}-phenyl)-3-(5-cyano-pyrazin-2-yl)-urea hydrochloride], in that order: 26 nM, 209 nM and 0.09 nM.
For `COc1cc(CCNC[C@@H]2CNCCO2)c(Cl)cc1NC(=O)Nc1cnc(C#N)cn1` [Example 3, 1-(5-Chloro-2-methoxy-4-{2-[((R)-1-morpholin-2-ylmethyl)-amino]-ethyl}-phenyl)-3-(5-cyano-pyrazin-2-yl)-urea hydrochloride] the same measures were 81 nM, 173 nM and 0.14 nM.
For `COc1cc(CCNC[C@H]2CNCCO2)c(Cl)cc1NC(=O)Nc1cnc(C#N)cn1` [Example 4, 1-(5-Chloro-2-methoxy-4-{2-[((S)-1-morpholin-2-ylmethyl)-amino]-ethyl}-phenyl)-3-(5-cyano-pyrazin-2-yl)-urea hydrochloride] the same measures were 49 nM, 111 nM and 0.05 nM.
On to `COc1cc(CCNCCN2CCOCC2)c(Cl)cc1NC(=O)Nc1cnc(C#N)cn1` [Example 7, 1-{5-Chloro-2-methoxy-4-[2-(2-morpholin-4-yl-ethylamino)-ethyl]-phenyl}-3-(5-cyano-pyrazin-2-yl)-urea hydrochloride], for which the IC50 in the test on MOLM-13 cells stood at 113 nM; with MV4-11 cells, 295 nM; at Chk-1 kinase, 0.8 nM.
As to `CC(C)Oc1cc(CCNCCN2CCOCC2)c(Cl)cc1NC(=O)Nc1cnc(C#N)cn1` [Example 8, 1-{5-Chloro-2-isopropoxy-4-[2-(2-morpholin-4-yl-ethylamino)-ethyl]-phenyl}-3-(5-cyano-pyrazin-2-yl)-urea hydrochloride], the IC50 in the test on MOLM-13 cells came to 28 nM; in the test with MV4-11 cells, 38 nM; at Chk-1 kinase it was 0.75 nM.
In the case of `COc1cc(CCN[C@H](C)C2CCN(S(C)(=O)=O)CC2)c(Cl)cc1NC(=O)Nc1cnc(C#N)cn1` [Example 13, 1-(5-Chloro-4-{2-[(R)-1-(1-methanesulfonyl-piperidin-4-yl)-ethylamino]-ethyl}-2-methoxy-phenyl)-3-(5-cyano-pyrazin-2-yl)-urea hydrochloride], on Chk-1 kinase, the IC50 is 0.27 nM.
For `COc1cc(CCNC[C@H]2CN(C(=O)C3CC3)CCO2)c(Cl)cc1NC(=O)Nc1cnc(C#N)cn1` [Example 14, 1-(5-Chloro-4-{2-[((S)-4-cyclopropanecarbonyl-morpholin-2-ylmethyl)-amino]-ethyl}-2-methoxy-phenyl)-3-(5-cyano-pyrazin-2-yl)-urea hydrochloride], the IC50 with MV4-11 cells was 202 nM; at Chk-1 kinase it was 0.4 nM.
In the case of `COc1cc(CCNC(=O)[C@H]2CNCCO2)c(Cl)cc1NC(=O)Nc1cnc(C#N)cn1` [Example 15, (R)-Morpholine-2-carboxylic acid (2-{2-chloro-4-[3-(5-cyano-pyrazin-2-yl)-ureido]-5-methoxy-phenyl}-ethyl)-amide hydrochloride], the IC50 at Chk-1 kinase was determined as 20 nM.
The same measure, in the same setting: the figure for `COc1cc(CCNC(=O)CN2CCOCC2)c(Cl)cc1NC(=O)Nc1cnc(C#N)cn1` [Example 16, N-(2-{2-Chloro-4-[3-(5-cyano-pyrazin-2-yl)-ureido]-5-methoxy-phenyl}-ethyl)-2-morpholin-4-yl-acetamide hydrochloride] is 76 nM; for `COc1cc(CCNC(=O)CN2CCN(C)CC2)c(Cl)cc1NC(=O)Nc1cnc(C#N)cn1` [Example 17, N-(2-{2-Chloro-4-[3-(5-cyano-pyrazin-2-yl)-ureido]-5-methoxy-phenyl}-ethyl)-2-(4-methyl-piperazin-1-yl)-acetamide hydrochloride] it is 13 nM.
Regarding `COc1cc(CCN[C@@H](C)CN2CCOCC2)c(Cl)cc1NC(=O)Nc1cnc(C#N)cn1` [Example 18, 1-{5-Chloro-2-methoxy-4-[2-((S)-1-methyl-2-morpholin-4-yl-ethylamino)-ethyl]-phenyl}-3-(5-cyano-pyrazin-2-yl)-urea hydrochloride], the IC50 was found to be 175 nM in the test on MV4-11 cells and 0.52 nM at Chk-1 kinase.
For `COc1cc(CCNCC(=O)N2CCOCC2)c(Cl)cc1NC(=O)Nc1cnc(C#N)cn1` [Example 19, 1-{5-Chloro-2-methoxy-4-[2-(2-morpholin-4-yl-2-oxo-ethylamino)-ethyl]-phenyl}-3-(5-cyano-pyrazin-2-yl)-urea hydrochloride] the same measures were 481 nM and 1.9 nM.
`CC(C)Oc1cc(CCNC(=O)[C@H]2CNCCO2)c(Cl)cc1NC(=O)Nc1cnc(C#N)cn1` [Example 20, (R)-Morpholine-2-carboxylic acid (2-{2-chloro-4-[3-(5-cyano-pyrazin-2-yl)-ureido]-5-isopropoxy-phenyl}-ethyl)-amide hydrochloride]: the IC50 on Chk-1 kinase amounted to 7.1 nM.
On to `COc1cc(CCNC[C@H]2CN(C(=O)C3CC3)CCO2)ccc1NC(=O)Nc1cnc(C#N)cn1` [Example 21, 1-(5-Cyano-pyrazin-2-yl)-3-(4-{2-[((S)-4-cyclopropanecarbonyl-morpholin-2-ylmethyl)-amino]-ethyl}-2-methoxy-phenyl)-urea hydrochloride], for which the figures for the IC50 in the test with MV4-11 cells and on Chk-1 kinase were 3760 nM and 10 nM, respectively.
Take `CC(C)Oc1cc(CCNC(=O)CN2CCN(C)CC2)c(Cl)cc1NC(=O)Nc1cnc(C#N)cn1` [Example 22, N-(2-{2-Chloro-4-[3-(5-cyano-pyrazin-2-yl)-ureido]-5-isopropoxy-phenyl}-ethyl)-2-(4-methyl-piperazin-1-yl)-acetamide hydrochloride]: the IC50 worked out at 519 nM in the test on MV4-11 cells and 8.2 nM at Chk-1 kinase.
For `COc1cc(CCN[C@@H](C)CN2CCOCC2)ccc1NC(=O)Nc1cnc(C#N)cn1` [Example 23, 1-(5-Cyano-pyrazin-2-yl)-3-{2-methoxy-4-[2-((S)-1-methyl-2-morpholin-4-yl-ethylamino)-ethyl]-phenyl}-urea hydrochloride], in that order: 4790 nM and 19 nM.
For `COc1cc(CCN[C@H](C)CN2CCOCC2)c(Cl)cc1NC(=O)Nc1cnc(C#N)cn1` [Example 24, 1-{5-Chloro-2-methoxy-4-[2-((R)-1-methyl-2-morpholin-4-yl-ethylamino)-ethyl]-phenyl}-3-(5-cyano-pyrazin-2-yl)-urea hydrochloride], on Chk-1 kinase, the IC50 is 1.1 nM.
Still for that read-out and setting: the figure for `COc1cc(OCCNCCN2CCOCC2)c(Cl)cc1NC(=O)Nc1cnc(C#N)cn1` [Example 25, 1-{5-Chloro-2-methoxy-4-[2-(2-morpholin-4-yl-ethylamino)-ethoxy]-phenyl}-3-(5-cyano-pyrazin-2-yl)-urea hydrochloride] is 0.61 nM.
In the case of `COc1cc(CCNCC(=O)N2CCN(C)CC2)c(Cl)cc1NC(=O)Nc1cnc(C#N)cn1` [Example 26, 1-(5-Chloro-2-methoxy-4-{2-[2-(4-methyl-piperazin-1-yl)-2-oxo-ethylamino]-ethyl}-phenyl)-3-(5-cyano-pyrazin-2-yl)-urea hydrochloride], the IC50 worked out at 800 nM in the test on MV4-11 cells and 0.58 nM at Chk-1 kinase.
Take `CC(C)Oc1cc(CCNCC(=O)N2CCOCC2)c(Cl)cc1NC(=O)Nc1cnc(C#N)cn1` [Example 27, 1-{5-Chloro-2-isopropoxy-4-[2-(2-morpholin-4-yl-2-oxo-ethylamino)-ethyl]-phenyl}-3-(5-cyano-pyrazin-2-yl)-urea hydrochloride]: the IC50 in the test with MV4-11 cells is 135 nM; on Chk-1 kinase, 0.21 nM.
Take `COc1cc(CCN[C@@H](C)C(=O)N2CCOCC2)c(Cl)cc1NC(=O)Nc1cnc(C#N)cn1` [Example 28, 1-{5-Chloro-2-methoxy-4-[2-((S)-1-methyl-2-morpholin-4-yl-2-oxo-ethylamino)-ethyl]-phenyl}-3-(5-cyano-pyrazin-2-yl)-urea hydrochloride]: the IC50 in the test with MV4-11 cells was determined as 390 nM; at Chk-1 kinase it was 0.48 nM.
For the compound `CC(C)Oc1cc(CCN[C@@H](C)C(=O)N2CCOCC2)ccc1NC(=O)Nc1cnc(C#N)cn1` [Example 30, 1-(5-Cyano-pyrazin-2-yl)-3-{2-isopropoxy-4-[2-((S)-1-methyl-2-morpholin-4-yl-2-oxo-ethylamino)-ethyl]-phenyl}-urea hydrochloride], at Chk-1 kinase, the IC50 was 2.9 nM.
